Molecular target: T1, EPHA6 (Homo sapiens, UniProt Q9UF33)
T1 construct: purchased Thermo Fisher Scientific (Life Technologies) SelectScreen
Assay: SelectScreen LanthaScreen
Type: binding
Settings: read-out: % displacement
Procedure, shortened: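 Percent values come from Thermo SelectScreen profiling of NU5455, combining activity and binding assays. CSF1R was run in Z'LYTE format at Km app ATP, and CAMK1 in Adapta format with ATP listed at 10.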

T1 sequence (Q9UF33 23-1036): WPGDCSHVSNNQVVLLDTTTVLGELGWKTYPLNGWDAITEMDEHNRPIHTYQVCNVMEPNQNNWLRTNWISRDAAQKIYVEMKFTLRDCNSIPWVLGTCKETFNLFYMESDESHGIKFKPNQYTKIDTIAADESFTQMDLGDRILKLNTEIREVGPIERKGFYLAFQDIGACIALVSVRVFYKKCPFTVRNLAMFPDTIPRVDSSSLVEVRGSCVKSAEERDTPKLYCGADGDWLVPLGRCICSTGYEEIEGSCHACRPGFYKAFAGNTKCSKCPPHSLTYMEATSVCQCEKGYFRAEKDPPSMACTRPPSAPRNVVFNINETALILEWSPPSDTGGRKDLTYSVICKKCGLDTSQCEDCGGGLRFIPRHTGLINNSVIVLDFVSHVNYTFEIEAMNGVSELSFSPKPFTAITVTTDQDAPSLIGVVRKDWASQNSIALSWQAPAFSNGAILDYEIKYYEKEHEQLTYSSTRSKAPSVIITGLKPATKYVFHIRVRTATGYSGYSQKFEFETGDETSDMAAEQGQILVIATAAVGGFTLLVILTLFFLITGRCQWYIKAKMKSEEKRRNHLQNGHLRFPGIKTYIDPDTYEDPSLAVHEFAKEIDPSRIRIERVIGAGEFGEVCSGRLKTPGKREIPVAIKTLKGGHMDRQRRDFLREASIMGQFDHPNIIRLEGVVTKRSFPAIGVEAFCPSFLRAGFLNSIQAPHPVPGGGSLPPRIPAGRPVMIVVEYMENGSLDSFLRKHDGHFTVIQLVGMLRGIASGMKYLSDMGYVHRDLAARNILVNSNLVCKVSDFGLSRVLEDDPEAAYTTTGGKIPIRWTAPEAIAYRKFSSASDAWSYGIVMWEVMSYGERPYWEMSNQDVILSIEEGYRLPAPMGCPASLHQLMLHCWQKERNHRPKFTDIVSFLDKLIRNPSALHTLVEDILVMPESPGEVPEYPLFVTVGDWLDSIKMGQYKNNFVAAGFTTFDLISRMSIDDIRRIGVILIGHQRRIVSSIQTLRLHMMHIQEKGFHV

CN(C(=O)CN1CCOCC1)c1ccc2sc3c(-c4cccc5c(=O)cc(N6CC7CCC(C6)O7)oc45)cccc3c2c1 [NU5455]
inhibition at 1 µM: 1.6%
